Columns and labels:
[1] = system: Japanese bulrush; test: Test Example 1: herbicidal activity, application before weed generation under submerged conditions (Table 16, symbol B); assay type: in vivo, Japanese bulrush (Schoenoplectus juncoides); details: amount of applied herbicide 320 g/ha
How it was run: (§1)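 Alluvial soil was flooded to 4 cm depth, weed seeds were sown mixed and 2.5-leaf rice seedlings were transplanted. On sowing day, the compound's emulsion, diluted in water to a set dose, was applied to the water surface. Plants grew at 25–30 °C and were scored 0–5 after three weeks.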

[2] = system: oval-leafed pondweed; test: Test Example 1: herbicidal activity, application before weed generation under submerged conditions (Table 16, symbol C); assay type: in vivo, oval-leafed pondweed (Monochoria vaginalis); details: amount of applied herbicide 320 g/ha
How it was run: as §1

[3] = system: Chinese sprangletop; test: Test Example 3: herbicidal effect by foliage application, Wagner pot (Table 18, symbol D); assay type: in vivo, chinese sprangletop (Leptochloa chinensis)
How it was run: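 Plants were sown in alluvial soil held under 0.1–0.5 cm standing water and grown 14 days in a greenhouse at 25–30 °C. An emulsifiable formulation, water-diluted to the set dose, was then sprayed onto the foliage, and effects were scored three weeks later using previously defined criteria.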

[4] = system: southern crabgrass; test: Test Example 4: herbicidal effect by soil treatment (Table 19, symbol F); assay type: in vivo, southern crabgrass (Digitaria ciliaris); details: amount of applied herbicide 320 g/ha
How it was run: (§2)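 Three weeks of greenhouse growth at 25° C. to 30° C. followed a uniform surface spray of water-diluted emulsion at a predetermined herbicide amount. Seeds had been sown beforehand under about 1.5 cm of sterilized diluvial soil. Grading followed criteria set out in an earlier test.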

[5] = system: barnyard grass; test: Test Example 4: herbicidal effect by soil treatment (Table 19, symbol H); assay type: in vivo, barnyard grass (Echinochloa crus-galli); details: amount of applied herbicide 320 g/ha
How it was run: as §2

[6] = system: wild oat; test: Test Example 4: herbicidal effect by soil treatment (Table 19, symbol I); assay type: in vivo, wild oat (Avena fatua); details: amount of applied herbicide 320 g/ha
How it was run: as §2

[7] = system: blackgrass; test: Test Example 4: herbicidal effect by soil treatment (Table 19, symbol J); assay type: in vivo, blackgrass (Alopecurus myosuroides); details: amount of applied herbicide 320 g/ha
How it was run: as §2

[8] = system: velvetleaf; test: Test Example 4: herbicidal effect by soil treatment (Table 19, symbol M); assay type: in vivo, velvetleaf (Abutilon theophrasti); details: amount of applied herbicide 320 g/ha
How it was run: as §2

[9] = system: redroot pigweed; test: Test Example 4: herbicidal effect by soil treatment (Table 19, symbol N); assay type: in vivo, redroot pigweed (Amaranthus retroflexus); details: amount of applied herbicide 320 g/ha
How it was run: as §2

[10] = system: lambsquarters; test: Test Example 4: herbicidal effect by soil treatment (Table 19, symbol O); assay type: in vivo, lambsquarters (Chenopodium album); details: amount of applied herbicide 320 g/ha
How it was run: as §2

[11] = system: false cleavers; test: Test Example 4: herbicidal effect by soil treatment (Table 19, symbol Q); assay type: in vivo, false cleavers (Galium spurium); details: amount of applied herbicide 320 g/ha
How it was run: as §2

[12] = system: barnyard grass; test: Test Example 5: herbicidal effect by foliage application, plastic box (Table 20, symbol H); assay type: in vivo, barnyard grass (Echinochloa crus-galli); details: foliage application, 320 g/ha; for H: barnyard grass, herbicidal effect grade: three weeks after application
How it was run: (§3)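 Plants sown in sterilized diluvial soil and grown 14 days in a greenhouse at 25° C to 30° C, then sprayed on the foliage with the compound's emulsion diluted in water to a predetermined herbicide amount. Injury to weeds and crops scored three weeks after application on a visual rating scale.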

[13] = system: wild oat; test: Test Example 5: herbicidal effect by foliage application, plastic box (Table 20, symbol I); assay type: in vivo, wild oat (Avena fatua); details: foliage application, 320 g/ha; for I: wild oat, herbicidal effect grade: three weeks after application
How it was run: as §3

[14] = system: blackgrass; test: Test Example 5: herbicidal effect by foliage application, plastic box (Table 20, symbol J); assay type: in vivo, blackgrass (Alopecurus myosuroides); details: foliage application, 320 g/ha; for J: blackgrass, herbicidal effect grade: three weeks after application
How it was run: as §3

[15] = system: velvetleaf; test: Test Example 5: herbicidal effect by foliage application, plastic box (Table 20, symbol M); assay type: in vivo, velvetleaf (Abutilon theophrasti); details: foliage application, 320 g/ha; for M: velvetleaf, herbicidal effect grade: three weeks after application
How it was run: as §3

[16] = system: redroot pigweed; test: Test Example 5: herbicidal effect by foliage application, plastic box (Table 20, symbol N); assay type: in vivo, redroot pigweed (Amaranthus retroflexus); details: foliage application, 320 g/ha; for N: redroot pigweed, herbicidal effect grade: three weeks after application
How it was run: as §3

[17] = system: chickweed; test: Test Example 5: herbicidal effect by foliage application, plastic box (Table 20, symbol P); assay type: in vivo, common chickweed (Stellaria media); details: foliage application, 320 g/ha; for P: chickweed, herbicidal effect grade: three weeks after application
How it was run: as §3

[18] = system: false cleavers; test: Test Example 5: herbicidal effect by foliage application, plastic box (Table 20, symbol Q); assay type: in vivo, false cleavers (Galium spurium); details: foliage application, 320 g/ha, three weeks after application
How it was run: as §3

[19] = amount of applied herbicide 320 g/ha
[20] = evaluated 3 weeks after application

SMILES | Herbicidal effect, B: Japanese bulrush [1] | Herbicidal effect, C: oval-leafed pondweed [2] | herbicidal effect on D: Chinese sprangletop [3, 19] | herbicidal effect, F: southern crabgrass [4] | herbicidal effect, H: barnyard grass [5] | herbicidal effect, I: wild oat [6] | herbicidal effect, J: blackgrass [7] | herbicidal effect, M: velvetleaf [8] | herbicidal effect, N: redroot pigweed [9] | herbicidal effect, O: lambsquarters [10] | herbicidal effect, Q: false cleavers [11] | H: barnyard grass, herbicidal effect grade [12] | I: wild oat, herbicidal effect grade [13] | J: blackgrass, herbicidal effect grade [14] | M: velvetleaf, herbicidal effect grade [15] | N: redroot pigweed, herbicidal effect grade [16] | P: chickweed, herbicidal effect grade [17] | Q: false cleavers, herbicidal effect grade [18] | H: barnyard grass, herbicidal effect grade [5] | I: wild oat, herbicidal effect grade [6] | other results
CCCC(=O)Oc1c(C)nn(C)c(=O)c1-c1c(-c2ccccc2OC)sc2cc(F)ccc12 [3-004] | 3 (Herbicidal rate of 40% or more and less than 70%) | 3 (Herbicidal rate of 40% or more and less than 70%) | 4 (Herbicidal rate of 70% or more and less than 90%) | 4 (Herbicidal rate of 70% or more and less than 90%) | 4 (Herbicidal rate of 70% or more and less than 90%) | 3 (Herbicidal rate of 40% or more and less than 70%) | 4 (Herbicidal rate of 70% or more and less than 90%) | 4 (Herbicidal rate of 70% or more and less than 90%) | 5 (Herbicidal rate of 90% or more (almost completely withered)) | 5 (Herbicidal rate of 90% or more (almost completely withered)) | 5 (Herbicidal rate of 90% or more (almost completely withered)) | 5 (Herbicidal rate of 90% or more (almost completely withered)) | 4 (Herbicidal rate of 70% or more and less than 90%) | 5 (Herbicidal rate of 90% or more (almost completely withered)) | 5 (Herbicidal rate of 90% or more (almost completely withered)) | 5 (Herbicidal rate of 90% or more (almost completely withered)) | 5 (Herbicidal rate of 90% or more (almost completely withered)) | 5 (Herbicidal rate of 90% or more (almost completely withered)) | – | – | –
COc1ccc(-c2sc3cc(F)ccc3c2-c2c(O)c(C)nn(C)c2=O)cc1 [3-005] | 4 (Herbicidal rate of 70% or more and less than 90%) | 4 (Herbicidal rate of 70% or more and less than 90%) | 3 (Herbicidal rate of 40% or more and less than 70%) | 0 (Herbicidal rate of 5% or less (almost no effect)) | 3 (Herbicidal rate of 40% or more and less than 70%) | 0 (Herbicidal rate of 5% or less (almost no effect)) | 0 (Herbicidal rate of 5% or less (almost no effect)) | 3 (Herbicidal rate of 40% or more and less than 70%) | 5 (Herbicidal rate of 90% or more (almost completely withered)) | 4 (Herbicidal rate of 70% or more and less than 90%) | 0 (Herbicidal rate of 5% or less (almost no effect)) | 3 (Herbicidal rate of 40% or more and less than 70%) | 3 (Herbicidal rate of 40% or more and less than 70%) | 0 (Herbicidal rate of 5% or less (almost no effect)) | 5 (Herbicidal rate of 90% or more (almost completely withered)) | 5 (Herbicidal rate of 90% or more (almost completely withered)) | 5 (Herbicidal rate of 90% or more (almost completely withered)) | 4 (Herbicidal rate of 70% or more and less than 90%) | – | – | –
CCCC(=O)Oc1c(C)nn(C)c(=O)c1-c1c(-c2ccc(F)cc2OCC)sc2cc(OCC)ccc12 [3-096] | 5 (Herbicidal rate of 90% or more (almost completely withered)) | 5 (Herbicidal rate of 90% or more (almost completely withered)) | – | – | – | – | – | – | – | – | – | 5 (Herbicidal rate of 90% or more (almost completely withered)) | 5 (Herbicidal rate of 90% or more (almost completely withered)) | 5 (Herbicidal rate of 90% or more (almost completely withered)) | 5 (Herbicidal rate of 90% or more (almost completely withered)) | 5 (Herbicidal rate of 90% or more (almost completely withered)) | 5 (Herbicidal rate of 90% or more (almost completely withered)) | 5 (Herbicidal rate of 90% or more (almost completely withered)) | 0 (Herbicidal rate of 5% or less (almost no effect)) | 0 (Herbicidal rate of 5% or less (almost no effect)) | herbicidal effect on Chinese sprangletop (D) ([3]; 320 g/ha): 5 (Herbicidal rate of 90% or more (almost completely withered)); J: blackgrass, herbicidal effect grade [7]: 3 (Herbicidal rate of 40% or more and less than 70%); M: velvetleaf, herbicidal effect grade [8]: 4 (Herbicidal rate of 70% or more and less than 90%); N: redroot pigweed, herbicidal effect grade [9]: 5 (Herbicidal rate of 90% or more (almost completely withered)); O: lambsquarters, herbicidal effect grade [10]: 5 (Herbicidal rate of 90% or more (almost completely withered)); Q: false cleavers, herbicidal effect grade [11]: 5 (Herbicidal rate of 90% or more (almost completely withered))
CCCC(=O)Oc1c(C)nn(C)c(=O)c1-c1c(-c2ccc(COC)cc2)oc2ccc(C)cc12 [9-062] | 5 (Herbicidal rate of 90% or more (almost completely withered)) | 5 (Herbicidal rate of 90% or more (almost completely withered)) | – | – | – | – | – | – | – | – | – | – | – | – | – | – | – | – | 4 (Herbicidal rate of 70% or more and less than 90%) | 0 (Herbicidal rate of 5% or less (almost no effect)) | Herbicidal effect on D (Chinese sprangletop), foliage application [3, 19]: 3 (Herbicidal rate of 40% or more and less than 70%); F: southern crabgrass, herbicidal effect grade [4]: 4 (Herbicidal rate of 70% or more and less than 90%); J: blackgrass, herbicidal effect grade [7]: 4 (Herbicidal rate of 70% or more and less than 90%); M: velvetleaf, herbicidal effect grade [8]: 5 (Herbicidal rate of 90% or more (almost completely withered)); N: redroot pigweed, herbicidal effect grade [9]: 5 (Herbicidal rate of 90% or more (almost completely withered)); O: lambsquarters, herbicidal effect grade [10]: 4 (Herbicidal rate of 70% or more and less than 90%); Q: false cleavers, herbicidal effect grade [11]: 0 (Herbicidal rate of 5% or less (almost no effect)); H (barnyard grass) herbicidal effect grade [12, 20]: 4 (Herbicidal rate of 70% or more and less than 90%); I (wild oat) herbicidal effect grade [13, 20]: 0 (Herbicidal rate of 5% or less (almost no effect)); J (blackgrass) herbicidal effect grade [14, 20]: 4 (Herbicidal rate of 70% or more and less than 90%); M (velvetleaf) herbicidal effect grade [15, 20]: 5 (Herbicidal rate of 90% or more (almost completely withered)); N (redroot pigweed) herbicidal effect grade [16, 20]: 5 (Herbicidal rate of 90% or more (almost completely withered)); P (chickweed) herbicidal effect grade [17, 20]: 5 (Herbicidal rate of 90% or more (almost completely withered))

Reference: patent US20230085307A1, “PYRIDAZINONE COMPOUND AND HERBICIDE” (NISSAN CHEMICAL CORPORATION, priority 2019, published 2023)
